Experimental data published in ChEMBL document CHEMBL1201862, “PubChem BioAssay data set” (2004).
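Where inhibition never reached the appropriate level, the endpoint shown equals the highest concentration tested. Otherwise, values were interpolated linearly from a five-concentration, 48-hour dose response in 96-well plates. The concentration for 50% growth inhibition is given as GI50.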 Activity calls are given as the source filed them. Rule as the data show it: active = GI50 up to about 1.1 µM and inactive = higher. Square brackets hold non-standard residues; d marks the D form. Peptide text beside a SMILES is read from it. * marks the point of attachment. AllylGly = C=CC[CH](N)C(=O)O; Boc = CC(C)(C)OC(=O)*; OtBu = CC(C)(C)O*

Columns and labels:
Assay in all cases: growth of human tumour cells (NCI), 48 h
OVCAR-5 = test system: OVCAR-5
K562 = test system: K562
SNB-19 = test system: SNB-19
HT-29 = test system: HT-29
DU-145 = test system: DU-145
SF-268 = test system: SF-268
HCC 2998 = test system: HCC 2998
SK-MEL-28 = test system: SK-MEL-28
Malme-3M = test system: Malme-3M
A498 = test system: A498
M14 = test system: M14
MDA-MB-231 = test system: MDA-MB-231
ACHN = test system: ACHN
OVCAR-3 = test system: OVCAR-3
SF-295 = test system: SF-295
KM12 = test system: KM12
HCT-116 = test system: HCT-116
NCI/ADR-RES = test system: NCI/ADR-RES
SW-620 = test system: SW-620
UACC-257 = test system: UACC-257
SN12C = test system: SN12C
UO-31 = test system: UO-31
SR = test system: SR
IGROV-1 = test system: IGROV-1
SNB-75 = test system: SNB-75
NCI-H522 = test system: NCI-H522
PC-3 = test system: PC-3
CCRF-CEM = test system: CCRF-CEM
OVCAR-4 = test system: OVCAR-4
A549 = test system: A549
TK-10 = test system: TK-10
U-251 = test system: U-251
NCI-H23 = test system: NCI-H23
MDA-MB-435 = test system: MDA-MB-435
MDA-N = test system: MDA-N
Hs-578T = test system: Hs-578T
HCT-15 = test system: HCT-15
OVCAR-8 = test system: OVCAR-8
SK-OV-3 = test system: SK-OV-3
BT-549 = test system: BT-549
UACC-62 = test system: UACC-62
COLO 205 = test system: COLO 205
MOLT-4 = test system: MOLT-4
RXF 393 = test system: RXF 393
HOP-92 = test system: HOP-92
NCI-H460 = test system: NCI-H460
HOP-62 = test system: HOP-62
SF-539 = test system: SF-539
SK-MEL-2 = test system: SK-MEL-2
EKVX = test system: EKVX
SK-MEL-5 = test system: SK-MEL-5
HL-60 = test system: HL-60
RPMI-8226 = test system: RPMI-8226
786-0 = test system: 786-0
NCI-H226 = test system: NCI-H226
T47D = test system: T47D
LOX IMVI = test system: LOX IMVI
CAKI-1 = test system: CAKI-1
MCF7 = test system: MCF7

Q: What does the source list for `C=CCC(NC(=O)C(CC(=O)OC(C)(C)C)NC(=O)OC(C)(C)C)C(=O)OC` (configuration not stated) (Boc-Asp(OtBu)-[AllylGly]-OMe; configuration not given here)?
A: GI50 (OVCAR-5): > 100 µM (inactive); GI50 (K562): 47.8 µM (inactive); GI50 (SNB-19): > 100 µM (inactive); GI50 (HT-29): > 100 µM (inactive); GI50 (DU-145): > 100 µM (inactive); GI50 (SF-268): 51.2 µM (inactive); GI50 (HCC 2998): 25.9 µM (inactive); GI50 (SK-MEL-28): 47.4 µM (inactive); GI50 (Malme-3M): 1.84 µM (inactive); GI50 (A498): > 100 µM (inactive); GI50 (M14): 20.2 µM (inactive); GI50 (MDA-MB-231): > 100 µM (inactive); GI50 (ACHN): > 100 µM (inactive); GI50 (OVCAR-3): 24.7 µM (inactive); GI50 (SF-295): > 100 µM (inactive); GI50 (KM12): > 55.2 µM (inactive); GI50 (HCT-116): 71.1 µM (inactive); GI50 (NCI/ADR-RES): > 100 µM (inactive); GI50 (SW-620): 56.1 µM (inactive); GI50 (UACC-257): 24 µM (inactive); GI50 (SN12C): > 67 µM (inactive); GI50 (UO-31): > 100 µM (inactive); GI50 (SR): 37.9 µM (inactive); GI50 (IGROV-1): > 100 µM (inactive); GI50 (SNB-75): 97.9 µM (inactive); GI50 (NCI-H522): > 100 µM (inactive); GI50 (PC-3): > 100 µM (inactive); GI50 (CCRF-CEM): 45.8 µM (inactive); GI50 (OVCAR-4): > 100 µM (inactive); GI50 (A549): > 100 µM (inactive); GI50 (TK-10): > 100 µM (inactive); GI50 (U-251): > 42.9 µM (inactive); GI50 (NCI-H23): > 94.8 µM (inactive); GI50 (MDA-MB-435): > 53.2 µM (inactive); GI50 (MDA-N): 31 µM (inactive); GI50 (Hs-578T): > 100 µM (inactive); GI50 (HCT-15): > 100 µM; GI50 (OVCAR-8): 16 µM (inactive); GI50 (SK-OV-3): > 100 µM (inactive); GI50 (BT-549): > 100 µM (inactive); GI50 (UACC-62): 48.3 µM (inactive); GI50 (COLO 205): 21.1 µM (inactive); GI50 (MOLT-4): > 49.9 µM (inactive); GI50 (RXF 393): 99.3 µM (inactive); GI50 (HOP-92): > 78.2 µM (inactive); GI50 (NCI-H460): > 100 µM (inactive); GI50 (HOP-62): > 64.1 µM (inactive); GI50 (SF-539): > 100 µM (inactive); GI50 (SK-MEL-2): 73.3 µM (inactive); GI50 (EKVX): > 100 µM (inactive); GI50 (SK-MEL-5): 27.6 µM (inactive); GI50 (HL-60): 30.1 µM (inactive); GI50 (RPMI-8226): 32.4 µM (inactive); GI50 (786-0): > 100 µM (inactive); GI50 (NCI-H226): > 100 µM (inactive); GI50 (T47D): 37.6 µM (inactive); GI50 (LOX IMVI): 20.9 µM (inactive); GI50 (CAKI-1): > 100 µM (inactive); GI50 (MCF7): 55.8 µM (inactive)

Q: With `O=C(c1ccc(Cl)c(Cl)c1)N(C(=O)N1CCN(c2ccccc2)CC1)S(=O)(=O)c1ccccc1` as the compound, how does the GI50 (OVCAR-5) read?
A: The GI50 was 26.9 µM (inactive).

Q: And the GI50 (K562)?
A: The GI50 was 22.9 µM (inactive).

Q: What about the GI50 (SNB-19) of the same compound?
A: Its GI50 is 36.6 µM (inactive).

Q: And the GI50 (HT-29)?
A: Its GI50 is 46.7 µM (inactive).

Q: What about the GI50 (DU-145) of the same compound?
A: The GI50 was > 100 µM (inactive).

Q: What about the GI50 (SF-268) of the same compound?
A: Its GI50 is 38.2 µM (inactive).

Q: And the GI50 (HCC 2998)?
A: The GI50 was > 100 µM (inactive).

Q: What about the GI50 (SK-MEL-28) of the same compound?
A: Its GI50 is > 100 µM (inactive).

Q: What about the GI50 (Malme-3M) of the same compound?
A: Its GI50 is 60 µM (inactive).

Q: And the GI50 (A498)?
A: Its GI50 is > 100 µM (inactive).

Q: What about the GI50 (M14) of the same compound?
A: Its GI50 is 37.2 µM (inactive).

Q: What about the GI50 (MDA-MB-231) of the same compound?
A: The GI50 was 35.6 µM (inactive).

Q: And the GI50 (ACHN)?
A: The GI50 was 97.1 µM (inactive).

Q: And the GI50 (OVCAR-3)?
A: The GI50 was 29.6 µM (inactive).

Q: And the GI50 (SF-295)?
A: Its GI50 is 49.4 µM (inactive).

Q: What about the GI50 (KM12) of the same compound?
A: Its GI50 is > 100 µM (inactive).

Q: And the GI50 (HCT-116)?
A: Its GI50 is 29.8 µM (inactive).

Q: What about the GI50 (NCI/ADR-RES) of the same compound?
A: Its GI50 is 34 µM (inactive).

Q: What about the GI50 (SW-620) of the same compound?
A: Its GI50 is 36.1 µM (inactive).

Q: And the GI50 (UACC-257)?
A: The GI50 was > 100 µM (inactive).

Q: And the GI50 (SN12C)?
A: The GI50 was 36.1 µM (inactive).

Q: What about the GI50 (UO-31) of the same compound?
A: Its GI50 is 25.1 µM (inactive).

Q: And the GI50 (SR)?
A: The GI50 was 20.7 µM (inactive).

Q: What about the GI50 (SNB-75) of the same compound?
A: Its GI50 is 91.4 µM (inactive).

Q: What about the GI50 (NCI-H522) of the same compound?
A: Its GI50 is 19 µM (inactive).

Q: And the GI50 (PC-3)?
A: Its GI50 is 32 µM (inactive).

Q: What about the GI50 (CCRF-CEM) of the same compound?
A: Its GI50 is 19 µM (inactive).

Q: What about the GI50 (OVCAR-4) of the same compound?
A: The GI50 was 24.2 µM (inactive).

Q: And the GI50 (A549)?
A: The GI50 was > 100 µM (inactive).

Q: What about the GI50 (TK-10) of the same compound?
A: The GI50 was > 100 µM (inactive).

Q: And the GI50 (U-251)?
A: The GI50 was 25.5 µM (inactive).

Q: What about the GI50 (NCI-H23) of the same compound?
A: Its GI50 is 37.5 µM (inactive).

Q: And the GI50 (MDA-MB-435)?
A: The GI50 was 46.7 µM (inactive).

Q: What about the GI50 (MDA-N) of the same compound?
A: Its GI50 is 26.2 µM (inactive).

Q: And the GI50 (Hs-578T)?
A: The GI50 was 57 µM (inactive).

Q: What about the GI50 (HCT-15) of the same compound?
A: The GI50 was 24.5 µM.

Q: And the GI50 (OVCAR-8)?
A: The GI50 was 26.9 µM (inactive).

Q: What about the GI50 (SK-OV-3) of the same compound?
A: The GI50 was 27 µM (inactive).

Q: What about the GI50 (BT-549) of the same compound?
A: Its GI50 is 40.6 µM (inactive).

Q: What about the GI50 (UACC-62) of the same compound?
A: Its GI50 is 32.8 µM (inactive).

Q: What about the GI50 (COLO 205) of the same compound?
A: The GI50 was > 100 µM (inactive).

Q: What about the GI50 (MOLT-4) of the same compound?
A: The GI50 was 12.9 µM (inactive).

Q: And the GI50 (RXF 393)?
A: The GI50 was > 100 µM (inactive).

Q: And the GI50 (HOP-92)?
A: The GI50 was 20.9 µM (inactive).

Q: And the GI50 (NCI-H460)?
A: The GI50 was 68.7 µM (inactive).

Q: And the GI50 (HOP-62)?
A: The GI50 was 31.6 µM (inactive).

Q: What about the GI50 (SF-539) of the same compound?
A: Its GI50 is 41.2 µM (inactive).

Q: What about the GI50 (SK-MEL-2) of the same compound?
A: The GI50 was 23.2 µM (inactive).

Q: And the GI50 (EKVX)?
A: The GI50 was > 100 µM (inactive).

Q: What about the GI50 (SK-MEL-5) of the same compound?
A: The GI50 was 28.2 µM (inactive).

Q: And the GI50 (HL-60)?
A: The GI50 was > 100 µM (inactive).

Q: What about the GI50 (RPMI-8226) of the same compound?
A: The GI50 was 32.6 µM (inactive).

Q: And the GI50 (786-0)?
A: The GI50 was 35.6 µM (inactive).

Q: What about the GI50 (NCI-H226) of the same compound?
A: Its GI50 is 24.2 µM (inactive).

Q: And the GI50 (T47D)?
A: Its GI50 is > 100 µM (inactive).

Q: What about the GI50 (LOX IMVI) of the same compound?
A: The GI50 was 19.9 µM (inactive).

Q: And the GI50 (CAKI-1)?
A: Its GI50 is 55.6 µM (inactive).

Q: And the GI50 (MCF7)?
A: The GI50 was 36.1 µM (inactive).
